These results are taken from article PMC5218480 (PLoS ONE, 2017).

The structures appear in SMILES notation.

The subject of the test is MV-4-11 cells. The test is described as follows: Gene expression microarray analysis (Affymetrix PrimeView) and GSEA. Type of test: cell-based, human. Also noted: RFU PODN (11730768_x_at) / Fold change /veh PODN (11730768_x_at) / RFU LINC00158 (11744669_a_at) / Fold change /veh LINC00158 (11744669_a_at) / RFU DUSP10 (11751237_a_at) / Fold change /veh DUSP10 (11751237_a_at) / RFU ID3 (11757404_x_at) / Fold change /veh ID3 (11757404_x_at) / RFU PLEKHG5 (11737974_s_at) / Fold change /veh PLEKHG5 (11737974_s_at) / RFU LRRC4B (11730491_at) / Fold change /veh LRRC4B (11730491_at) / RFU GIMAP4 (11747438_a_at) / Fold change /veh GIMAP4 (11747438_a_at) / RFU KRT8 (11758183_x_at) / Fold change /veh KRT8 (11758183_x_at) / RFU CNN1 (11734310_a_at) / Fold change /veh CNN1 (11734310_a_at) / RFU VPS37D (11726825_at) / Fold change /veh VPS37D (11726825_at) / RFU C10orf10 (11716522_x_at) / Fold change /veh C10orf10 (11716522_x_at) / RFU KIR2DL2 /// KIR2DL4 /// KIR2DL5A /// KIR2DL5B /// KIR2DS1 /// KIR2DS2 /// KIR2DS3 /// KIR2DS4 /// KIR3DL3 /// KIR3DL3 /// KIR3DS1 (11738374_at) / Fold change /veh KIR2DL2 /// KIR2DL4 /// KIR2DL5A /// KIR2DL5B /// KIR2DS1 /// KIR2DS2 /// KIR2DS3 /// KIR2DS4 /// KIR3DL3 /// KIR3DL3 /// KIR3DS1 (11738374_at) / RFU C1QL1 (11718748_at) / Fold change /veh C1QL1 (11718748_at) / RFU TMPRSS4 (11747572_a_at) / Fold change /veh TMPRSS4 (11747572_a_at) / RFU HAMP (11756126_x_at) / Fold change /veh HAMP (11756126_x_at) / RFU RNFT2 (11725882_a_at) / Fold change /veh RNFT2 (11725882_a_at) / RFU NR4A2 (11747474_a_at) / Fold change /veh NR4A2 (11747474_a_at) / RFU ABCC12 (11746883_a_at) / Fold change /veh ABCC12 (11746883_a_at) / RFU TMEM136 (11760407_x_at) / Fold change /veh TMEM136 (11760407_x_at) / RFU CLDN22 /// WWC2 (11732394_at) / Fold change /veh CLDN22 /// WWC2 (11732394_at) / RFU HLA-DPB1 (11760878_x_at) / Fold change /veh HLA-DPB1 (11760878_x_at) / RFU SPINT1 (11716480_a_at) / Fold change /veh SPINT1 (11716480_a_at) / RFU GAP43 (11754022_s_at) / Fold change /veh GAP43 (11754022_s_at) / RFU A4GNT (11735810_at) / Fold change /veh A4GNT (11735810_at) / RFU PRB3 (11715151_x_at) / Fold change /veh PRB3 (11715151_x_at) / RFU TUBB4B (11761932_at) / Fold change /veh TUBB4B (11761932_at) / RFU CAPN14 (11732068_a_at) / Fold change /veh CAPN14 (11732068_a_at) / RFU TMCC2 (11721928_a_at) / Fold change /veh TMCC2 (11721928_a_at) / RFU IRGQ (11745062_a_at) / Fold change /veh IRGQ (11745062_a_at) / RFU FAM174B (11720279_a_at) / Fold change /veh FAM174B (11720279_a_at) / RFU TMPRSS4 (11748680_a_at) / Fold change /veh TMPRSS4 (11748680_a_at) / RFU FAM212B (11763350_a_at) / Fold change /veh FAM212B (11763350_a_at) / RFU PLEKHG5 (11743358_a_at) / Fold change /veh PLEKHG5 (11743358_a_at) / RFU ZSCAN30 (11745921_a_at) / Fold change /veh ZSCAN30 (11745921_a_at) / RFU CMKLR1 (11741424_a_at) / Fold change /veh CMKLR1 (11741424_a_at) / RFU LOC101060620 /// MAPK8IP1 (11723275_at) / Fold change /veh LOC101060620 /// MAPK8IP1 (11723275_at) / RFU SPTSSB (11747773_x_at) / Fold change /veh SPTSSB (11747773_x_at) / RFU PRSS12 (11739890_at) / Fold change /veh PRSS12 (11739890_at) / RFU BIN1 (11741810_x_at) / Fold change /veh BIN1 (11741810_x_at) / RFU WNT11 (11732464_a_at) / Fold change /veh WNT11 (11732464_a_at) / RFU C10orf10 (11716521_a_at) / Fold change /veh C10orf10 (11716521_a_at) / RFU C5orf56 (11738089_at) / Fold change /veh C5orf56 (11738089_at) / RFU CYB561 (11721691_x_at) / Fold change /veh CYB561 (11721691_x_at) / RFU ANKRD19P (11752326_a_at) / Fold change /veh ANKRD19P (11752326_a_at) / RFU OR2T12 /// OR2T33 /// OR2T8 (11738714_s_at) / Fold change /veh OR2T12 /// OR2T33 /// OR2T8 (11738714_s_at) / RFU VCAN (11748164_a_at) / Fold change /veh VCAN (11748164_a_at) / RFU JSRP1 (11732532_at) / Fold change /veh JSRP1 (11732532_at) / RFU KRTAP10-11 (11738290_x_at) / Fold change /veh KRTAP10-11 (11738290_x_at) / RFU MYO3A (11730013_a_at) / Fold change /veh MYO3A (11730013_a_at) / RFU EBF3 (11725865_a_at) / Fold change /veh EBF3 (11725865_a_at) / RFU CAMK2N1 (11719241_x_at) / Fold change /veh CAMK2N1 (11719241_x_at) / RFU C5orf56 (11738088_a_at) / Fold change /veh C5orf56 (11738088_a_at) / RFU OLFML3 (11715873_a_at) / Fold change /veh OLFML3 (11715873_a_at) / RFU LOC100653217 /// NTM (11731650_a_at) / Fold change /veh LOC100653217 /// NTM (11731650_a_at) / RFU MAPK11 (11762145_a_at) / Fold change /veh MAPK11 (11762145_a_at) / RFU FIZ1 (11724087_x_at) / Fold change /veh FIZ1 (11724087_x_at) / RFU OASL (11726364_x_at) / Fold change /veh OASL (11726364_x_at) / RFU SOX15 (11748057_x_at) / Fold change /veh SOX15 (11748057_x_at) / RFU CD79A (11719716_a_at) / Fold change /veh CD79A (11719716_a_at) / RFU HIST1H1D (11736915_at) / Fold change /veh HIST1H1D (11736915_at) / RFU CASKIN2 (11723855_a_at) / Fold change /veh CASKIN2 (11723855_a_at) / RFU LOC730098 (11760151_x_at) / Fold change /veh LOC730098 (11760151_x_at) / RFU OR4N2 (11742367_at) / Fold change /veh OR4N2 (11742367_at) / RFU PRRT2 (11749266_a_at) / Fold change /veh PRRT2 (11749266_a_at) / RFU SNX32 (11753110_a_at) / Fold change /veh SNX32 (11753110_a_at) / RFU CDHR5 (11726645_a_at) / Fold change /veh CDHR5 (11726645_a_at) / RFU RCAN1 (11760418_a_at) / Fold change /veh RCAN1 (11760418_a_at) / RFU FAM167A (11723789_a_at) / Fold change /veh FAM167A (11723789_a_at) / RFU FAM26E (11764081_at) / Fold change /veh FAM26E (11764081_at) / RFU ISYNA1 (11749810_s_at) / Fold change /veh ISYNA1 (11749810_s_at) / RFU ACY1 (11761880_at) / Fold change /veh ACY1 (11761880_at) / RFU 11764098_at / Fold change /veh 11764098_at / RFU SAMD14 (11745864_x_at) / Fold change /veh SAMD14 (11745864_x_at) / RFU NPB (11741838_a_at) / Fold change /veh NPB (11741838_a_at) / RFU TMPRSS6 (11731388_a_at) / Fold change /veh TMPRSS6 (11731388_a_at) / RFU KRTAP10-2 (11738614_at) / Fold change /veh KRTAP10-2 (11738614_at) / RFU ARHGAP8 /// PRR5-ARHGAP8 (11727945_x_at) / Fold change /veh ARHGAP8 /// PRR5-ARHGAP8 (11727945_x_at) / RFU KRTAP5-7 /// NADSYN1 (11734609_at) / Fold change /veh KRTAP5-7 /// NADSYN1 (11734609_at) / RFU RASL12 (11751679_a_at) / Fold change /veh RASL12 (11751679_a_at) / RFU CDKN2B (11736163_a_at) / Fold change /veh CDKN2B (11736163_a_at) / RFU PRF1 (11729649_at) / Fold change /veh PRF1 (11729649_at) / RFU, ZNF638 /// ZNF638-IT1 / Fold change vs veh, ZNF638 /// ZNF638-IT1 / RFU, PANK3 / Fold change vs veh, PANK3 / RFU, SH3YL1 / Fold change vs veh, SH3YL1 / RFU, ZEB2 / Fold change vs veh, ZEB2 / RFU, NRIP1 / Fold change vs veh, NRIP1 / RFU, PTTG1IP / Fold change vs veh, PTTG1IP / RFU, CAPN2 / Fold change vs veh, CAPN2 / RFU, MED14 / Fold change vs veh, MED14 / RFU, SNORA58 / Fold change vs veh, SNORA58 / RFU, C1orf63 / Fold change vs veh, C1orf63 / RFU, LRRFIP1 / Fold change vs veh, LRRFIP1 / RFU, NDUFAF7 / Fold change vs veh, NDUFAF7 / RFU, SLC12A2 / Fold change vs veh, SLC12A2 / RFU, IBTK / Fold change vs veh, IBTK / RFU, ESF1 / Fold change vs veh, ESF1 / Fold change vs veh, TMEM50B / RFU, TAOK1 / Fold change vs veh, TAOK1 / RFU, ACBD3 / Fold change vs veh, ACBD3 / RFU, TMA16 / Fold change vs veh, TMA16 / RFU, RWDD3 / Fold change vs veh, RWDD3 / RFU, BCAT1 / Fold change vs veh, BCAT1 / RFU, EDEM3 / Fold change vs veh, EDEM3 / RFU, TMEM33 / Fold change vs veh, TMEM33 / RFU, WDR75 / Fold change vs veh, WDR75 / RFU, AHCTF1 / Fold change vs veh, AHCTF1 / RFU, TFRC / Fold change vs veh, TFRC / RFU, ZDHHC17 / Fold change vs veh, ZDHHC17 / RFU, NOM1 / Fold change vs veh, NOM1 / RFU, ARL8B / Fold change vs veh, ARL8B / RFU, ZBTB11 / Fold change vs veh, ZBTB11 / RFU, TAMM41 / Fold change vs veh, TAMM41 / RFU, KIAA1704 /// LOC100996395 / Fold change vs veh, KIAA1704 /// LOC100996395 / RFU, ING1 / Fold change vs veh, ING1 / RFU, TRMT61B / Fold change vs veh, TRMT61B / RFU, FUBP3 / Fold change vs veh, FUBP3 / RFU, TP53 / Fold change vs veh, TP53 / RFU, TNKS2 / Fold change vs veh, TNKS2 / RFU, ZFP14 / Fold change vs veh, ZFP14 / RFU, ACTR2 / Fold change vs veh, ACTR2 / RFU, PPP3R1 / Fold change vs veh, PPP3R1 / RFU, PIK3R1 / Fold change vs veh, PIK3R1 / RFU, HNRNPA1 / Fold change vs veh, HNRNPA1 / RFU, RNF170 / Fold change vs veh, RNF170 / RFU, ZNF28 / Fold change vs veh, ZNF28 / RFU, RNGTT / Fold change vs veh, RNGTT / RFU, OGT / Fold change vs veh, OGT / RFU, BRD1 / Fold change vs veh, BRD1 / RFU, MARS / Fold change vs veh, MARS / RFU, ZNF655 / Fold change vs veh, ZNF655 / RFU, FAHD1 / Fold change vs veh, FAHD1 / RFU, BDP1 / Fold change vs veh, BDP1 / RFU, LRRCC1 / Fold change vs veh, LRRCC1 / RFU, ARID1A / Fold change vs veh, ARID1A / RFU, ZNF146 / Fold change vs veh, ZNF146 / RFU, ZNF330 / Fold change vs veh, ZNF330 / RFU, GPN3 / Fold change vs veh, GPN3 / RFU, C9orf123 / Fold change vs veh, C9orf123 / RFU, N4BP2L2 / Fold change vs veh, N4BP2L2 / RFU, ARFIP1 / Fold change vs veh, ARFIP1 / RFU, FAM179B / Fold change vs veh, FAM179B / RFU, BCL10 / Fold change vs veh, BCL10 / RFU, UHRF1BP1L / Fold change vs veh, UHRF1BP1L / RFU, BET1 / Fold change vs veh, BET1 / RFU, CNOT2 / Fold change vs veh, CNOT2 / RFU, ZNF268 / Fold change vs veh, ZNF268 / Fold change vs veh, ZNF507 / RFU, DGCR2 / Fold change vs veh, DGCR2 / RFU, WDSUB1 / Fold change vs veh, WDSUB1 / Fold change vs veh, HSP90B1 /// MIR3652 / RFU, ADSS / Fold change vs veh, ADSS / RFU, GK / Fold change vs veh, GK / RFU, ZNF148 / Fold change vs veh, ZNF148 / RFU, TAF9 / Fold change vs veh, TAF9 / RFU, SLC1A5 / Fold change vs veh, SLC1A5 / RFU, SLMO2 / Fold change vs veh, SLMO2 / RFU, ABCC4 / Fold change vs veh, ABCC4 / RFU, LOC101060439 /// RAP1B / Fold change vs veh, LOC101060439 /// RAP1B / RFU, RFX7 / Fold change vs veh, RFX7 / RFU, GTPBP10 / Fold change vs veh, GTPBP10 / RFU, CNEP1R1 / Fold change vs veh, CNEP1R1 / RFU, BIVM-ERCC5 /// ERCC5 / Fold change vs veh, BIVM-ERCC5 /// ERCC5 / RFU, ILF3 / Fold change vs veh, ILF3 / RFU 11762660_at / Fold change /veh 11762660_at / RFU VCAN (11757783_s_at) / Fold change /veh VCAN (11757783_s_at) / RFU DDX43 (11728927_at) / Fold change /veh DDX43 (11728927_at) / RFU KRT8 (11758188_x_at) / Fold change /veh KRT8 (11758188_x_at) / RFU NKD1 (11759106_at) / Fold change /veh NKD1 (11759106_at) / RFU SRD5A1 (11742802_a_at) / Fold change /veh SRD5A1 (11742802_a_at) / RFU TPSAB1 /// TPSB2 (11721975_s_at) / Fold change /veh TPSAB1 /// TPSB2 (11721975_s_at) / RFU GSTM3 (11746129_a_at) / Fold change /veh GSTM3 (11746129_a_at) / RFU IL23R (11737362_x_at) / Fold change /veh IL23R (11737362_x_at) / RFU TMEM51 (11727254_a_at) / Fold change /veh TMEM51 (11727254_a_at) / RFU PIWIL2 (11732686_x_at) / Fold change /veh PIWIL2 (11732686_x_at) / RFU ORM1 (11744905_x_at) / Fold change /veh ORM1 (11744905_x_at) / RFU CCDC152 (11743942_at) / Fold change /veh CCDC152 (11743942_at) / RFU ECM1 (11717891_a_at) / Fold change /veh ECM1 (11717891_a_at) / RFU IL23R (11748794_a_at) / Fold change /veh IL23R (11748794_a_at) / RFU TNFAIP8L3 (11732012_x_at) / Fold change /veh TNFAIP8L3 (11732012_x_at) / RFU MBOAT4 (11741988_at) / Fold change /veh MBOAT4 (11741988_at) / RFU 11764193_at / Fold change /veh 11764193_at / RFU TMEM53 (11763286_at) / Fold change /veh TMEM53 (11763286_at) / RFU MAGEB2 (11727129_at) / Fold change /veh MAGEB2 (11727129_at) / RFU TMEM200A (11744735_a_at) / Fold change /veh TMEM200A (11744735_a_at) / RFU CCDC152 (11751479_a_at) / Fold change /veh CCDC152 (11751479_a_at) / RFU FAM211A (11726209_a_at) / Fold change /veh FAM211A (11726209_a_at) / RFU RGS16 (11746705_a_at) / Fold change /veh RGS16 (11746705_a_at) / RFU VCAN (11755009_s_at) / Fold change /veh VCAN (11755009_s_at) / RFU RHOB (11743442_s_at) / Fold change /veh RHOB (11743442_s_at) / RFU RGS16 (11720943_a_at) / Fold change /veh RGS16 (11720943_a_at) / RFU RGS16 (11720944_at) / Fold change /veh RGS16 (11720944_at) / RFU, VPS4B / Fold change vs veh, VPS4B / RFU, CREB1 / Fold change vs veh, CREB1 / RFU, DNAJC13 / Fold change vs veh, DNAJC13 / RFU, GNAQ / Fold change vs veh, GNAQ / RFU, CDK5R1 / Fold change vs veh, CDK5R1 / RFU, ZRANB3 / Fold change vs veh, ZRANB3 / RFU, CUL4A / Fold change vs veh, CUL4A / RFU, CCNY / Fold change vs veh, CCNY / RFU, UFL1 / Fold change vs veh, UFL1 / RFU, COG3 / Fold change vs veh, COG3 / RFU, DIAPH2 / Fold change vs veh, DIAPH2 / RFU, SKA2 / Fold change vs veh, SKA2 / RFU, AFF3 / Fold change vs veh, AFF3 / RFU, LMF1 / Fold change vs veh, LMF1 / RFU, IPO11 / Fold change vs veh, IPO11 / RFU, DFFB / Fold change vs veh, DFFB / RFU, FOXP1 / Fold change vs veh, FOXP1 / RFU, CARD8 / Fold change vs veh, CARD8 / RFU, STRN3 / Fold change vs veh, STRN3 / RFU, ADK / Fold change vs veh, ADK / RFU, RASSF2 / Fold change vs veh, RASSF2 / RFU, WIPF1 / Fold change vs veh, WIPF1 / RFU, LARP1B / Fold change vs veh, LARP1B / RFU, RASA1 / Fold change vs veh, RASA1 / RFU, RB1 / Fold change vs veh, RB1 / RFU, PPFIA1 / Fold change vs veh, PPFIA1 / RFU, MAT2A / Fold change vs veh, MAT2A / RFU, CCT5 / Fold change vs veh, CCT5 / RFU, WDR92 / Fold change vs veh, WDR92 / RFU, CUX1 / Fold change vs veh, CUX1 / RFU, TTC7A / Fold change vs veh, TTC7A / RFU, TMEM135 / Fold change vs veh, TMEM135 / RFU, DEPTOR / Fold change vs veh, DEPTOR / RFU, CPM / Fold change vs veh, CPM / RFU, DNAJB6 / Fold change vs veh, DNAJB6 / RFU, CACNA2D3 / Fold change vs veh, CACNA2D3 / RFU, DTX4 / Fold change vs veh, DTX4 / RFU, TFCP2 / Fold change vs veh, TFCP2 / RFU, GMCL1 /// GMCL1P1 / Fold change vs veh, GMCL1 /// GMCL1P1 / RFU, AEBP2 / Fold change vs veh, AEBP2 / RFU, SNHG1 /// SNORD22 /// SNORD25 /// SNORD26 /// SNORD27 /// SNORD28 /// SNORD29 /// SNORD31 / Fold change vs veh, SNHG1 /// SNORD22 /// SNORD25 /// SNORD26 /// SNORD27 /// SNORD28 /// SNORD29 /// SNORD31 / Fold change (Aza/veh), C12orf56 (ProbeSet 11735607_a_at) / Fold change (ACY-1035/veh), C12orf56 (ProbeSet 11735607_a_at) / Fold change (Aza/veh), FGFR1OP (ProbeSet 11751329_s_at) / Fold change (ACY-1035/veh), FGFR1OP (ProbeSet 11751329_s_at) / Fold change (Aza/veh), VPS36 (ProbeSet 11739960_a_at) / Fold change (ACY-1035/veh), VPS36 (ProbeSet 11739960_a_at) / RFU SYPL1 (11715823_x_at) / Fold change /veh SYPL1 (11715823_x_at) / RFU IGFBP7 (11715501_s_at) / Fold change /veh IGFBP7 (11715501_s_at) / RFU REEP3 (11722064_at) / Fold change /veh REEP3 (11722064_at) / RFU IGLL1 (11728026_x_at) / Fold change /veh IGLL1 (11728026_x_at): dose or concentration left out as unconfirmed. The note with it: ProbeSet 11725141_a_at; LIST B.

For the compound `Nc1ccc(-c2cccs2)cc1NC(=O)c1ccc2c(c1)cc(C1CC1)n2CCN1CCOCC1` [ACY-1035], the “Fold change vs veh, FUBP3” value was determined as 0.87.
